In US11693017B2, “Small molecule biosensors” (President and Fellows of Harvard College, priority 2015, dated 2023):

Columns and labels:
[1] = test system: G-DIG1-V-Matα2 biosensor with pUAS::Luc in transgenic Arabidopsis plants; assay: TF-biosensor assays in transgenic Arabidopsis plants; format: in vivo, Arabidopsis thaliana
Protocol: Transgenic plants expressing the digoxin biosensor genetic circuit were tested for digoxigenin-induced luciferase expression by placing 14-16 day old plants in liquid MS (-sucrose) media supplemented with 0.1 mM digoxigenin in 24-well plates, and incubated in a growth chamber at 24° C., […] light.
Luciferase expression was measured by imaging plants with a Stanford Photonics XR/MEGA-10 ICCD Camera, after spraying luciferin and dark adapting plants for 30 minutes. Luciferase expression was quantified using Piper Control (v.2.6.17) software. Plants from line KJM58-10 were used to test for specificity of induction by incubating plants, as described above, in 0.1 mM digoxigenin, 0.1 mM digitoxigenin, and 0.02 mM β-estradiol. All chemicals were obtained from Sigma-Aldrich (St. Louis, Mo.).

[2] = test system: DIG-Cas9 fusion in K562 cell line containing a broken EGFP; assay: TF-biosensor-Cas9 assay (EGFP repair); format: cell-based, human; conditions: 48-hour incubation
Protocol: Construct integration was carried out as for the Cas9 experiments for EGFP assays, except that the constructs were integrated into K562 containing a broken EGFP reporter construct. Introduction of an engineered nuclease along with a donor oligonucleotide can correct the EGFP and produce fluorescent cells. Upon successful integration (˜10 days after initial transfection), 500,000 cells were nucleofected with 500 ng of guide RNA (sgRNA) and 2 μg of donor oligonucleotide. Nucleofected cells were then collected with 200 μL of media and 50 μL aliquots were added to wells containing 950 μL of media. Each nucleofection was split into four separate wells containing 1 μM of digoxigenin, 25 μM of progesterone, or no small molecule. Forty-eight hours later, cells were analyzed using flow cytometry and the percentage of EGFP positive cells was determined.

DIG10.3 (DIG0) = conditions: cited from earlier work
[3] = test system: LexA-based TF-biosensors with DIG1 and B42; assay: Luciferase reporter assay in yeast with LexA-based TF-biosensor; format: cell-based, Saccharomyces cerevisiae; conditions: reporter promoter containing LexA-binding sites
Protocol: Yeast strains containing either a plasmid-borne or integrated luciferase reporter were transformed with p16C plasmids encoding TF-biosensors. Transformants were grown in triplicate overnight at 30° C. in SD-ura media containing 2% glucose in sterile glass test tubes on a roller drum. After ˜16 hours of growth, OD600 of each sample was measured and cultures were back diluted to OD600=0.2 in fresh SD-ura media containing steroid dissolved in DMSO or a DMSO control (1% DMSO final). Cultures were grown at 30° C. on roller drum for 8 hrs prior to taking readings. Measurement of luciferase activity was adapted from a previously reported protocol^58. 100 uL of each culture was transferred to a 96-well white NUNC plate. 100 uL of 2 mM D-luciferin in 0.1 M sodium citrate (pH 4.5) was added to each well of the plate and luminescence was measured on a Victor 3V after 5 minutes.

[4] = test system: degron-G-PRO1-V in HIS3 reporter strain PJ69-4a; assay: Yeast spotting (HIS3 growth) assay; format: cell-based, Saccharomyces cerevisiae; conditions: -his media
Protocol: Yeast strain PJ69-4a transformed with p16C plasmids containing degron G-DIG-V variants were first inoculated from colonies into SD-ura media and grown at 30° C. overnight (16 h). 1 mL of each culture was pelleted by centrifugation (3000 rcf, 2 min), resuspended in 1 mL of fresh SD-ura and the OD660 was measured. Each culture was then diluted in SD-ura media to an OD660=0.2 and incubated at 30° C. for 4-6 hrs. 1 mL of each culture was pelleted and resuspended in sterile, distilled water and the OD660 measured again. Each transformant was then diluted to an OD660=0.1. Four 1/10 serial dilutions of each culture were prepared in sterile water (for a total of 5 solutions). 10 μL of each dilution was spotted in series onto several SD-ura-his agar plates containing 1 mM 3-aminotriazole and the indicated steroid.

PRO0 = conditions: cited from earlier work

C[C@]12CC[C@H](O)C[C@H]1CC[C@@H]1[C@@H]2C[C@@H](O)[C@]2(C)[C@@H](C3=CC(=O)OC3)CC[C@]12O [digoxigenin]
induction of luciferase activity compared to the uninduced control ([1]; after 42 hours, T1 transgenic plants): 30-50 fold | increase in GFP positive cells relative to the mock control [2]: ~18 fold

C[C@H]1O[C@@H](O[C@H]2[C@@H](O)C[C@H](O[C@H]3[C@@H](O)C[C@H](O[C@H]4CC[C@@]5(C)[C@H](CC[C@@H]6[C@@H]5C[C@@H](O)[C@]5(C)[C@@H](C7=CC(=O)OC7)CC[C@]65O)C4)O[C@@H]3C)O[C@@H]2C)C[C@H](O)[C@@H]1O [digoxin]
affinity of binding to DIG10.3 (DIG0) (DIG10.3 (DIG0)): picomolar | induction of the biosensor ([1]; transgenic Arabidopsis plants): capable of inducing | activation in the presence of digoxin [3]: ~40 fold

CC(=O)[C@H]1CC[C@H]2[C@@H]3CC=C4C[C@@H](O)CC[C@]4(C)[C@H]3CC[C@]12C [pregnenolone]
growth of histidine auxotrophic reporter strain [4]: not

CC(=O)[C@H]1CC[C@H]2[C@@H]3CCC4=CC(=O)CC[C@]4(C)[C@H]3CC[C@]12C [progesterone]
affinity of binding to PRO0 (PRO0): nanomolar | growth of histidine auxotrophic reporter strain [4]: stimulated
